Laboratory results taken from ChEMBL document CHEMBL5143618, “Design, synthesis, and antitumor activity evaluation of novel acyl sulfonamide spirodienones” (Bioorg Med Chem, 2022).
Calls of active or inactive are those of the source. No cut-off for these calls is given here.

Assays:
[1] = test system: HeLa; assay: Antiproliferative activity against human HeLa cells assessed as inhibition of cell growth; type: functional, cell-based
[2] = test system: MDA-MB-231; assay: Antiproliferative activity against human MDA-MB-231 cells assessed as inhibition of cell growth; type: functional, cell-based
[3] = test system: A549; assay: Antiproliferative activity against human A549 cells assessed as inhibition of cell growth; type: functional, cell-based
[4] = Toxicity in orthotopic mouse inoculated with mouse 4T1 cells assessed as liver cell swelling at 10 mg/kg, ip administered every day measured after 14 days by hematoxylin and eosin staining based assay; type: organism-based; settings: in vivo, 336 h, time 14 day
[5] = Toxicity in orthotopic mouse inoculated with mouse 4T1 cells assessed as sparse and dull hair at 10 mg/kg, ip administered every day measured after 8 days; type: organism-based; settings: in vivo, 192 h, time 8 day
[6] = test system: 4T1; assay: Antitumor activity against mouse 4T1 cells inoculated orthotopic mouse assessed as apoptotic cells in tumor tissue by TUNEL assay (reference value: 3.13%); type: functional
[7] = test system: 4T1; assay: Antitumor activity against mouse 4T1 cells inoculated orthotopic mouse assessed as tumor growth inhibition ratio at 10 mg/kg, ip administered every day measured after 14 days; type: functional; set-up: scale not given: the % may be the effect or the level left; settings: time 14 day
[8] = test system: 4T1; assay: Antitumor activity against mouse 4T1 cells inoculated orthotopic mouse assessed as reduction in tumor volume at 10 mg/kg, ip administered every day measured after 14 days (reference value: 623 mm3); type: functional; settings: time 14 day
[9] = test system: 4T1; assay: Antitumor activity against mouse 4T1 cells inoculated orthotopic mouse assessed as decrease in tumor weight at 10 mg/kg, ip administered every day measured after 14 days; type: functional, organism-based; settings: time 14.0 day
[10] = test system: 4T1; assay: Antitumor activity against mouse 4T1 cells inoculated orthotopic mouse assessed as change in gross appearance of tumor at 10 mg/kg, ip administered every day measured after 14 days; type: functional, organism-based; settings: time 14.0 day
[11] = Toxicity in orthotopic mouse inoculated with mouse 4T1 cells assessed as hardened skin at 10 mg/kg, ip administered every day measured after 8 days; type: organism-based; settings: in vivo, 192 h, time 8 day
[12] = Toxicity in orthotopic mouse inoculated with mouse 4T1 cells assessed as body weight loss at 10 mg/kg, ip administered every day measured after 14 days; type: organism-based; settings: in vivo, 336 h, time 14 day

Row | SMILES | IC50 [1] | IC50 [2] | IC50 [3] | Activity [4] | Activity [5] | Activity [6] | Activity [7] | Activity [8] | Activity [9] | Activity [10] | Activity [11] | Activity [12]
1 | Cc1ccc(S(=O)(=O)N2CCOC23C=CC(=O)C=C3)cc1 | 0.71 µM | 0.39 µM | 0.33 µM |  |  |  |  |  |  |  |  | 
2 | COc1cccc2c1C(=O)c1c(O)c3c(c(O)c1C2=O)C[C@@](O)(C(=O)CO)C[C@@H]3O[C@H]1C[C@H](N)[C@H](O)[C@H](C)O1 [DOXORUBICIN] |  |  |  | Toxic | Toxic | 82.57% | 50% | 265 mm3 | Active | Active | Toxic | 19%
